In US5998487A, “Anti-inflammatory and antibacterial benzyl phenol agents and their use in oral compositions” (Colgate-Palmolive Company, priority 1998, dated 1999):
Values after ≈ are worked out from the molar mass of the structure shown. Read-outs that look alike come from different tables or passages of the source.

How the values were obtained:
COX-1 = COX-1 (Ovis aries, UniProt P05979); assay: COX-1 inhibition, oxygen utilization assay; format: biochemical; details: for IC50: oxygen consumption, read-out: IC50 Conc. to Inhibit 50% of COX-1 Activity
Excerpt: (§1) The efficacy of the AAB compounds of the present invention as inhibitors of COX-1 and COX-2 enzymes was shown using the oxygen utilization assay described in Dewhirst, Prostaglandins, 22, 209-222 (1980). Varying concentrations of 2-t-butyl-4-(4-t-butylbenzyl)-phenol, a compound of the present invention were selected that inhibit the enzymatic activity from 20% to about 80%, as compared to a positive control, no inhibitor. These varying concentrations of 2-t-butyl-4-(4-t-butylbenzyl)-phenol were independently added to COX-1 and COX-2 enzymes in a closed system, in which the enzymes were reacted in a reaction requiring molecular oxygen. The degree of inhibition of the COX enzyme activity was measured by the reduction in monitored oxygen consumption as a function of time within the closed system. The COX enzyme IC50, concentration of 2-t-butyl-4-(4-t-butylbenzyl)-phenol found to inhibit 50% of the activity of the COX-1 and COX-2 enzymes is recorded in Table II.
(§2) For comparison, the COX enzyme IC50 assay methodology of Example III was repeated using triclosan, an agent known to inhibit PG by inhibiting the production of its COX-1 and COX-2 precursors.

A. viscosus = assay: MIC (Minimum Inhibitory Concentration) test; format: cell-based; details: for MIC: Actinomyces viscosus, read-out: MIC (Bacterial Minimum Inhibitory Concentration)
Protocol: The smaller the MIC, the greater the antibacterial activity of the compound being tested.
Using a 96 well microtiter plate, a 100 μl of trypticase soy broth (TSB) media, available from BBL, Cockeysville, Md. 21030, was placed in each of the 12 columns within the plate. Using a octapette pipettor, the 2-t-butyl-4-(4-t-butylbenzyl)-phenol compound was serially diluted to each of the 12 columns, from 125 ppm in the first well of each column, to 0.061 ppm in the 12th (each column containing 1/2 the concentration of 2-t-butyl-4-(4-t-butylbenzyl)-phenol compound than the previous column). To each of the 12 columns an additional 100 μl of TBS was added containing A. viscosus bacterium, a common oral bacteria, at a concentration optical density of 0.1, at 610 nm. The plate was then sealed and incubated for 24 hours at 37° C.
The procedure of Example IV was simultaneously run with water as a negative control and using a known efficacious antibacterial agent, triclosan, as a comparative and positive control. The MIC determined for the triclosan is also recorded in Table III for comparative purposes.

[1] = test system: PGE2 production in Human Embryo Palatal Mesenchyme cells (HEPM, ATCC #1486); assay: Inhibition of PGE2 production in IL-1β-stimulated HEPM cells; format: cell-based; details: for IC50: Homo sapiens, read-out: IC50 Concentration to Inhibit 50% of PGE2
Protocol: Specifically, Human Embryo Palatal Mesenchyme cells (HEPM, ATCC #1486) cells were grown in high glycose Delbeco's Modified Eagles Medium (DMEM, Gibco/BRL-Life Technologies, Grand Island, N.Y.) containing 10% heat inactivated fetal bovine serum (FBS, Gibco/BRL). The cells were grown at 37° C., 100% humidity, and 10% CO2. Prior to analysis, the cells were subcultured into 24 well plates, to form 12 sets of duplicate cultures, and allowed to become 70-90% confluent. On day one of the experiment, the cells were washed three times with serum free media (containing 0.5% bovine serum albumin, BSA), followed by replacement with BSA containing media alone (the negative control) in the first culture set; media and 1.0 ng/mL IL-1β (the positive control, without any inhibitor) in the second culture set; and media, 1.0 ng/mL IL-1β, and a range of from 0.01 μM to 50 μM of 2-t-butyl-4-(4-t-butylbenzyl)-phenol in the third thru twelfth culture sets. Exposure was for 24 hours at which time the media was removed from each well, the media's pH was adjusted to 3.5 with HCl, and the media was analyzed for PGE2 produced using a PerSeptive Diagnostics TiterFluor PGE2 EIA kit, available from PerSeptive Biosystems, Framingham, Mass. 01701.
Prior to determining the PGE2 inhibitory effect of the 2-t-butyl-4-(4-t-butylbenzyl)-phenol compound of the present invention, the results must be normalized with respect to the number of viable cells in each culture well; more or less cells producing correspondingly more or less PGE2. […] Once dissolved, the spectroscopic absorbance of 100 μl of the isopropanol solution from each culture well was determined at 570 nm. A normalization factor, the cell concentration ratio, was calculated for each culture well, by dividing the absorbance of the particular culture well's isopropanol solution by the average absorbance of the unstimulated negative control set's isopropanol solutions. The PGE2 originally determined for each culture well was then normalized by being […] the cell concentration ratio calculated for that particular culture well. […]

COX-2 = target: T1, COX-2 (Homo sapiens, UniProt P35354); assay: COX-2 inhibition, oxygen utilization assay; format: biochemical
T1 sequence (P35354 18-604): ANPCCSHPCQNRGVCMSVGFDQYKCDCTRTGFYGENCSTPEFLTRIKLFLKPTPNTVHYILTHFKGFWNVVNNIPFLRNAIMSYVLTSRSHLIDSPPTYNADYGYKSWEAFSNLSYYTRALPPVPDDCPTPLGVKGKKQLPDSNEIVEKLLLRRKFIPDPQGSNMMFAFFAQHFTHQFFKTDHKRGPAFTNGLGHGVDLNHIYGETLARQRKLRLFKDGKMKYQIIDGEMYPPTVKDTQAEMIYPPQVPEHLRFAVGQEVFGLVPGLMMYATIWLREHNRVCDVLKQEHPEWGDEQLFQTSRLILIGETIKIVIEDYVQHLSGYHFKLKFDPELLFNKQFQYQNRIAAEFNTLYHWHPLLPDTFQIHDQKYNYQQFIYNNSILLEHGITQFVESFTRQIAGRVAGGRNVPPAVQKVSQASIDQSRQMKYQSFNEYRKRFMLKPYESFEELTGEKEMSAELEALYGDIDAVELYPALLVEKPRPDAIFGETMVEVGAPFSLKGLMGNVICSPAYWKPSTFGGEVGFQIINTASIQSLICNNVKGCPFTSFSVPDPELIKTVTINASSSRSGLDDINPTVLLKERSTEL
Excerpt: as §1, §2

cyclooxygenase = details: EP 0 528 468 A1; cited from earlier work
microbial challenge = details: EP 0 528 468 A1; cited from earlier work
caries = details: hamsters; Stralfors 1967; cited from earlier work

COX-1, sequence (P05979 25-600): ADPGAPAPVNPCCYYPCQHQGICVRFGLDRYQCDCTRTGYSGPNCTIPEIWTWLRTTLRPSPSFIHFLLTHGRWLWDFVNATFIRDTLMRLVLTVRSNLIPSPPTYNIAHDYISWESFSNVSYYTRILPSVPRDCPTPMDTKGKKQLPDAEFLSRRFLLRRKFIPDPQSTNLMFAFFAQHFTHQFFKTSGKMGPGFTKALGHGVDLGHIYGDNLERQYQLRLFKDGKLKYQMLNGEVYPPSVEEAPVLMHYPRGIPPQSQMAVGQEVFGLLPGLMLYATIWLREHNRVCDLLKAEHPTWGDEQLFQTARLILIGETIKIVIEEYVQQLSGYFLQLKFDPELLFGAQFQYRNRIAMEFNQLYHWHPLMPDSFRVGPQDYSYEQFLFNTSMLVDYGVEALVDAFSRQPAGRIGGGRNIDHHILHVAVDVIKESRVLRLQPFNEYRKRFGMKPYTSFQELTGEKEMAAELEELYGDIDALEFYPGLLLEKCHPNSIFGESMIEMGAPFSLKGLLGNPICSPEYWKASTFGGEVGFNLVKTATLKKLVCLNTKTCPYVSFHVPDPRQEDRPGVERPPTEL

## CC(C)(C)c1ccc(Cc2ccc(O)c(C(C)(C)C)c2)cc1 [2-t-butyl-4-(4-t-butylbenzyl)-phenol]
COX-1
  IC50: 17.4 µM
COX-1; vs triclosan, from Table II
  efficacy as COX-1 inhibitor relative to triclosan: over 2 times
A. viscosus; A. viscosus, TSB, 24 hours, 37° C.
  MIC: 0.24 µg/mL (≈ 0.81 µM)
A. viscosus; vs triclosan, from Table III
  MIC relative to that of triclosan: about 7%
[1]; HEPM cells, 1.0 ng/mL IL-1β, 24 hours, normalized to viable cells (MTT)
  IC50: 3.7 µM
[1]; vs triclosan, from Table I
  efficacy as PGE2 inhibitor relative to triclosan: ~2 times
COX-2; oxygen consumption, read-out: IC50 Conc. to Inhibit 50% of COX-2 Activity
  IC50: 100 µM
COX-2; vs triclosan, from Table II
  efficacy as COX-2 inhibitor relative to triclosan: over 2 times

## Oc1cc(Cl)ccc1Oc1ccc(Cl)cc1Cl [Triclosan, 2',4,4'-trichloro-2-hydroxy-diphenyl-ether]
COX-1
  IC50: 43 µM
A. viscosus; 24 h
  MIC: 3.61 µg/mL (≈ 12.5 µM)
[1]; 24 h
  IC50: 7 µM
cyclooxygenase
  inhibition of cyclooxygenase activity: inhibits cyclooxygenase activity
Microbial challenge
  reduction of microbial challenge: reduces microbial challenge
COX-2
  IC50: 229 µM

## O=C(O)C=Cc1ccc(O)c(O)c1 [caffeic acid, 3,4-dihydroxycinnamic acid]
caries
  adverse weight loss: without adverse weight loss
  inhibition of caries: inhibit caries

## O=C(O)c1ccc(O)c(O)c1 [protocatechuic acid, 3,4-dihydroxybenzoic acid]
caries
  adverse weight loss: without adverse weight loss
  inhibition of caries: inhibit caries

## O=c1c(O)c(-c2ccc(O)c(O)c2)oc2cc(O)cc(O)c12 [quercetin, pentahydroxyflavone]
caries
  adverse weight loss: without adverse weight loss
